SMILES strings stand for the structures.

The text below walks through data of patent US20240238212A1, “LIPID COMPOUNDS AND LIPID NANOPARTICLE COMPOSITIONS” (SUZHOU ABOGEN BIOSCIENCES CO., LTD., priority 2022, published 2024).

A short description of series [1]: Encapsulation efficiency of lipid nanoparticles (Quant-it Ribogreen RNA assay). It counts as physicochemical. As to conditions: LNP comprising the compound, hEPO mRNA. As to the method: (§1) Briefly, a cationic lipid provided herein, DSPC, cholesterol, and PEG-lipid were solubilized in ethanol at a molar ratio of 50:10:38.5:1.5, and mRNA were diluted in 10 to 50 mM citrate buffer, pH=4. The LNPs were prepared at a total lipid to mRNA weight ratio of approximately 10:1 to 30:1 by mixing the ethanolic lipid solution with the aqueous mRNA solution at a volume ratio of 1:3 using a microfluidic apparatus, total flow rate ranging from 9-30 mL/min. Ethanol were thereby removed and replaced by DPBS using dialysis. Finally, the lipid nanoparticles were filtered through a 0.2 μm sterile filter.
(§2) Lipid nanoparticle size were determined by dynamic light scattering using a Malvern Zetasizer Nano ZS (Malvern UK) using a 173° backscatter detection mode. The encapsulation efficiency of lipid nanoparticles were determined using a Quant-it Ribogreen RNA quantification assay kit (Thermo Fisher Scientific, UK) according to the manufacturer's instructions.

Series [2] concerns human erythropoietin (hEPO) mRNA expression. Briefly: Animal Study 1: hEPO mRNA LNPs i.v. in mice, serum EPO by ELISA. It counts as in vivo. As to conditions: female ICR mice, 0.5 mg/kg tail vein injection, blood e.g. 6 hours post administration; relative to MC3 LNP. As to the method:
Lipid nanoparticles comprising compounds in the following table encapsulating human erythropoietin (hEPO) mRNA were systemically administered to 6-8 week old female ICR mice (Xipuer-Bikai, Shanghai) at 0.5 mg/kg dose by tail vein injection and mice blood were sampled at specific time points (e.g., 6 hours) post administration. In addition to the aforementioned tested groups, lipid nanoparticles comprising dilinoleylmethyl-4-dimethylaminobutyrate (DLin-MC3-DMA, usually abbreviated to MC3) encapsulating hEPO mRNA were similarly administered at the same dose to age and gender comparative groups of mice as a positive control.
Mice were euthanized by CO2 overdoses after the last sampling time point. Serum were separated from total blood by centrifugation at 5000 g for 10 minutes at 4 T, snap-frozen and stored at −80 T for analysis. ELISA assay were carried out using a commercial kit (DEP00, R&D systems) according to manufacturer's instructions.
Characteristics of tested lipid nanoparticles, including EPO expression levels over MC3 measured from the tested group are listed in the table below.
For orientation: An ELISA detects its analyte on a solid surface through an enzyme-linked reagent.

Series [3] in a line: Lipid clearance study: lipid remaining in liver tissue by LC-MS/MS. As to conditions: mouse liver.
Description: LNPs were injected into mice via the tail vein (ICR female, IV, 0.5 mg mRNA/kg), then mice were anesthetized under carbon dioxide at different time (e.g., 6 h, 24 h, and 48 h) after administration and sacrificed via cardiac puncture. Liver tissue were collected immediately, and then washed by ice-cold saline. Liver samples were weighed and homogenized in ice water bath by adding pre-chilled 20% methanol-water (v/v) at 2˜8° C. with the ratio of 1:5 (w/v). The homogenized tissue samples were stored in −90˜−60° C. freezer prior to analysis.
All liver tissue homogenate samples were allowed to thaw at room temperature. An aliquot of 50 μL of sample was added with 50 μL MgCl2 (2M), then added with ACN which contains of Verapamil, 5 ng mL-1 and Glibenclamide, 50 ng mL-1 and Diclofenac, 200 ng mL^−1 and Tolbutamide, 200 ng mL^−1 for protein precipitation, then centrifuged at 13000 rpm for 8 min. Then 100 μL of supernatant was added with 100 μL water, then vortexed well. An aliquot of 5 μL of the mixture was injected into the LC-MS/MS system.
Series [4] in a line: Lipid nanoparticle size and polydispersity by dynamic light scattering. In kind it is physicochemical. As to conditions: LNP comprising the compound, hEPO mRNA; for Size (nm): cationic lipid/DSPC/cholesterol/PEG-lipid 50:10:38.5:1.5. How it is done:
as §1, §2

Series [5] is described as follows: Apparent pKa of LNP formulations (TNS fluorescence assay). It counts as physicochemical. As to conditions: LNP formulation, TNS assay (Table 2). How it is done: As reported in literature, the apparent pKa of LNP formulations correlates with the delivery efficiency of LNPs for nucleic acids in vivo. The apparent pKa of each formulation was determined using an assay based on fluorescence of 2-(p-toluidino)-6-napthalene sulfonic acid (TNS). LNP formulations comprising of cationic lipid/DSPC/cholesterol/DMG-PEG (50/10/38.5/1.5 mol %) in PBS were prepared as described above. TNS was prepared as a 300 μM stock solution in distilled water. LNP formulations were diluted to 0.1 mg/mL total lipid in 3 mL of buffered solutions containing 50 mM sodium citrate, 50 mM sodium phosphate, 50 mM sodium borate, and 30 mM sodium chloride where the pH ranged from 3 to 9. An aliquot of the TNS solution was added to give a final concentration of […] and following vortex mixing fluorescence intensity was measured at room temperature in a Molecular Devices Spectramax iD3 spectrometer using excitation and mission wavelengths of 325 nm and 435 nm. A sigmoidal best fit analysis was applied to the fluorescence data and the pKa value was measured as the pH giving rise to half-maximal fluorescent intensity.

With `CCCCCCCC(=O)OCC(CCCCN(CCCCC(COC(=O)CCCCCCC)COC(=O)CCCCCCC)CCOCCO)COC(=O)CCCCCCC` [Compound 5], the Encapsulation efficiency in series [1] turned out to be 89.49%. Moreover, in series [2], the “EPO expression over MC3” value is given as “A (≥2)”. Besides, in series [3] (6 h after 0.5 mg/kg i.v. bolus dose mRNA), the “% Dose Remaining in Liver Tissue, 6 h” value was 2.646%. In addition, in series [3] (24 h after 0.5 mg/kg i.v. bolus dose mRNA), the “% Dose Remaining in Liver Tissue, 24 h” value is reported as 0.098%. For the same molecule, the “% Dose Remaining in Liver Tissue, 48 h” value in series [3] (48 h after 0.5 mg/kg i.v. bolus dose mRNA) was determined as 0%. Also, in series [4], the Polydispersity amounted to 0.073 and the “Size (nm)” value is 82.87 nm.
With `CCCCCCCCC(CCCCCC)CNC(=O)CCCCCN(CCCCC(COC(=O)CCCCCCC)COC(=O)CCCCCCC)CCC1(O)CCCCC1` (stereo not drawn) [Compound 63], the Encapsulation efficiency in series [1] is 90.10%. Further, the “EPO expression over MC3” value in series [2] was “C (≥0.1 and <1)”. In addition, the “Apparent pKa” value in series [5] is 6.297. Moreover, in series [4], the Polydispersity turned out to be 0.159 and the “Size (nm)” value is on record as 130.62 nm.
Take `CCCCCCCC(=O)OCC(C)(COC(=O)CCCCCCC)COC(=O)CCCCCN(CCO)CCCCCC(=O)OCC(C)(COC(=O)CCCCCCC)COC(=O)CCCCCCC` [Compound 64]: in series [1], the Encapsulation efficiency is given as 94.94%. Further, the “EPO expression over MC3” value in series [2] is “A (≥2)”. The “Apparent pKa” value in series [5] came out at 6.575. In addition, in series [4], the Polydispersity is 0.094 and the “Size (nm)” value was determined as 83.57 nm.
On the same counts, the results for `CCCCCCCC(=O)OCC(COC(=O)CCCCCCC)COC(=O)CCCCCCCN(CCO)CCCCCCCC(=O)OCC(COC(=O)CCCCCCC)COC(=O)CCCCCCC` [Compound 65] are 96.01%, “A (≥2)”, 6.338, 0.040 and 62.56 nm.
With `CCCCCCCC(=O)OCC(COC(=O)CCCCCCC)COC(=O)CCCCCN(CCCO)CCCCCC(=O)OCC(COC(=O)CCCCCCC)COC(=O)CCCCCCC` [Compound 66], the Encapsulation efficiency in series [1] turned out to be 95.46%. The “EPO expression over MC3” value in series [2] is listed as “A (≥2)”. Also, the “Apparent pKa” value in series [5] is 6.379. Also, in series [4], the Polydispersity came out at 0.010 and the “Size (nm)” value was 113.3 nm.
On the same counts, the results for `CCCCCCCC(=O)OCC(COC(=O)CCCCCCC)COC(=O)CCCCCN(CCCCO)CCCCCC(=O)OCC(COC(=O)CCCCCCC)COC(=O)CCCCCCC` [Compound 67] are 94.95%, “A (≥2)”, 6.705, 0.026 and 87.2 nm.
On the same counts, the results for `CCCCCCCC(=O)OCC(COC(=O)CCCCCCC)COC(=O)CCCCCN(CCCCCO)CCCCCC(=O)OCC(COC(=O)CCCCCCC)COC(=O)CCCCCCC` [Compound 68] are 94.91%, “A (≥2)”, 6.582, 0.010 and 100.16 nm.
Molecule `CCCCCCCC(=O)OCC(COC(=O)CCCCCCC)COC(=O)CCCCCN(CCCCCCO)CCCCCC(=O)OCC(COC(=O)CCCCCCC)COC(=O)CCCCCCC` [Compound 69] yielded an Encapsulation efficiency in series [1] of 94.81%. In addition, the “EPO expression over MC3” value in series [2] was “B (≥1 and <2)”. For the same molecule, the “Apparent pKa” value in series [5] worked out at 6.271. In series [4], the Polydispersity is given as 0.012 and the “Size (nm)” value is listed as 106.71 nm.
`CCCCCCCC(=O)OCC(COC(=O)CCCCCCC)COC(=O)CCCCCN(CCCCCCCO)CCCCCC(=O)OCC(COC(=O)CCCCCCC)COC(=O)CCCCCCC` [Compound 70] returned an Encapsulation efficiency in series [1] of 95.70%. For the same molecule, the “EPO expression over MC3” value in series [2] was “B (≥1 and <2)”. Also, the “Apparent pKa” value in series [5] is reported as 6.171. Further, in series [4], the Polydispersity was 0.037 and the “Size (nm)” value is recorded as 67.7 nm.
Regarding `CCCCCCCCCC(=O)OCC(COC(=O)CCCCCCCCC)COC(=O)CCCCCN(CCO)CCCCCC(=O)OCC(COC(=O)CCCCCCCCC)COC(=O)CCCCCCCCC` [Compound 71], the Encapsulation efficiency in series [1] came out at 96.34%. Moreover, the “EPO expression over MC3” value in series [2] was “A (≥2)”. For the same molecule, the “Apparent pKa” value in series [5] worked out at 6.599. Further, in series [4], the Polydispersity is on record as 0.098 and the “Size (nm)” value is on record as 68.05 nm.
On the same counts, the results for `CCCCCCCCCCC(=O)OCC(COC(=O)CCCCCCCCCC)COC(=O)CCCCCN(CCO)CCCCCC(=O)OCC(COC(=O)CCCCCCCCCC)COC(=O)CCCCCCCCCC` [Compound 72] are 96.28%, “A (≥2)”, 6.728, 0.111 and 72.07 nm.
As to `CCCCCCCCCCCC(=O)OCC(COC(=O)CCCCCCCCCCC)COC(=O)CCCCCN(CCO)CCCCCC(=O)OCC(COC(=O)CCCCCCCCCCC)COC(=O)CCCCCCCCCCC` [Compound 73], the Encapsulation efficiency in series [1] is given as 96.37%. For the same molecule, the “EPO expression over MC3” value in series [2] is “C (≥0.1 and <1)”. For the same molecule, the “Apparent pKa” value in series [5] was 6.536. Besides, in series [4], the Polydispersity was 0.010 and the “Size (nm)” value worked out at 71.34 nm.
In turn, `CCCCCCCCCCCCC(=O)OCC(COC(=O)CCCCCCCCCCCC)COC(=O)CCCCCN(CCO)CCCCCC(=O)OCC(COC(=O)CCCCCCCCCCCC)COC(=O)CCCCCCCCCCCC` [Compound 74] had an Encapsulation efficiency in series [1] of 94.82%. For the same molecule, the “EPO expression over MC3” value in series [2] is “C (≥0.1 and <1)”. Also, in series [5], the “Apparent pKa” value was 6.283. Further, in series [4], the Polydispersity is on record as 0.012 and the “Size (nm)” value is given as 66.23 nm.
In series [1], `CCCCCCCCC(=O)OCC(COC(=O)CCCCCCCC)COC(=O)CCCCCN(CCO)CCCCCC(=O)OCC(COC(=O)CCCCCCCC)COC(=O)CCCCCCCC` [Compound 75] displayed an Encapsulation efficiency of 93.47%. For the same molecule, the “EPO expression over MC3” value in series [2] is “A (≥2)”. In addition, the “Apparent pKa” value in series [5] stood at 6.703. Further, in series [4], the Polydispersity is 0.074 and the “Size (nm)” value is reported as 66.83 nm.
On the same counts, the results for `CCCCCCCC(=O)OCC(CC)(COC(=O)CCCCCCC)COC(=O)CCCCCN(CCO)CCCCCC(=O)OCC(CC)(COC(=O)CCCCCCC)COC(=O)CCCCCCC` [Compound 82] are 95.75%, “A (≥2)”, 6.342, 0.010 and 69.37 nm.
On the same counts, the results for `CCCCCCCCC(CCCCCC)COC(=O)CCCCCN(CCO)CCCCCC(=O)OCC(C)(COC(=O)CCCCCCC)COC(=O)CCCCCCC` (stereo not drawn) [Compound 83] are 94.79%, “A (≥2)”, 6.547, 0.051 and 67.54 nm.
In the case of `CCCCCCCCC(CCCCCC)COC(=O)CCCCCN(CCO)CCCCCC(=O)OCC(CC)(COC(=O)CCCCCCC)COC(=O)CCCCCCC` (stereo not drawn) [Compound 84], the Encapsulation efficiency in series [1] was 94.81%. Besides, the “EPO expression over MC3” value in series [2] is reported as “A (≥2)”. Further, the “Apparent pKa” value in series [5] is 6.355. Also, in series [4], the Polydispersity is recorded as 0.022 and the “Size (nm)” value is given as 72.82 nm.
